Measured values from publication PMC7686103 (Bioorganic & medicinal chemistry letters, 2020).

Columns and labels:
[1] = target: hCB2 receptors (Homo sapiens, UniProt P34972); assay: [35S]GTPγS binding, modulation of G-protein activity in CHO-hCB2 cell membranes; format: biochemical; conditions: 10 μM
[2] = target: hCB1 receptors (Homo sapiens, UniProt P21554); assay: [35S]GTPγS binding, modulation of G-protein activity in CHO-hCB1 cell membranes; format: biochemical; conditions: 10 μM
hCB1 receptors, sequence (P21554 whole entry): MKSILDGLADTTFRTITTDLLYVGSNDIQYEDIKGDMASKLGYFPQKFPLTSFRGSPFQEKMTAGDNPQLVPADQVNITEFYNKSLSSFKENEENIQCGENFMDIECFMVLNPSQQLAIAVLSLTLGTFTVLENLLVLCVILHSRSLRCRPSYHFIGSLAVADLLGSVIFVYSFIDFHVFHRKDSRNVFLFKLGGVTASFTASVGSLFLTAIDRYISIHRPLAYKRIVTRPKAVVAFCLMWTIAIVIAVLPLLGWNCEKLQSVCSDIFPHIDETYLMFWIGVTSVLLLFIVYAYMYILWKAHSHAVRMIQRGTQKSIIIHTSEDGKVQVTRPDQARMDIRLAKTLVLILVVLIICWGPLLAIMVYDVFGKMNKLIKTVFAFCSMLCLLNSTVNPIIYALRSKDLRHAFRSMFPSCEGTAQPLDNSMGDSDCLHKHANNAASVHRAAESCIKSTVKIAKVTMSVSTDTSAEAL

hCB2 receptors, sequence (P34972 whole entry): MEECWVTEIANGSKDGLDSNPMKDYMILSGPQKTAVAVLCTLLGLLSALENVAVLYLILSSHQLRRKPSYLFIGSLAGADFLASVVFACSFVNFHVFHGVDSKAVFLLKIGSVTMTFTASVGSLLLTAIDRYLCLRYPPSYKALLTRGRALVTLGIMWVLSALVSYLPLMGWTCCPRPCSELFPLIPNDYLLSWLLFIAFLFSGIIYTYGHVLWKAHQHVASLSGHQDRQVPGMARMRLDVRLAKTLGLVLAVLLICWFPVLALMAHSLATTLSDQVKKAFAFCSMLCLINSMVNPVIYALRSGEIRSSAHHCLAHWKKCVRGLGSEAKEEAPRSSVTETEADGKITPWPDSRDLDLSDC

| Structure (SMILES) | Intrinsic activity at hCB2 receptors (modulation of [35S]GTPγS binding) [1] | Intrinsic activity at hCB1 receptors (modulation of [35S]GTPγS binding) [2] |
| --- | --- | --- |
| COc1ccc(C(=O)c2c(C)n(CCN3CCOCC3)c3cc(I)ccc23)cc1 [AM-630, reference compound] | inverse agonist activity |  |
| O=C1/C(=C/c2cn(Cc3ccccc3)c3ncccc23)N2CCC1CC2 [Compound 8a] | neutral antagonist | neutral antagonist |
| O=C1/C(=C/c2cn(Cc3ccc(Cl)cc3)c3ncccc23)N2CCC1CC2 [Compound 8b] | inverse agonist activity | inverse agonist activity |
| O=C1/C(=C/c2cn(Cc3ccc(Br)cc3)c3ncccc23)N2CCC1CC2 [Compound 8f] | neutral antagonist | inverse agonist |
| O=C1/C(=C/c2cn(Cc3ccc(F)cc3)c3ncccc23)N2CCC1CC2 [Compound 8g] | partial agonist | neutral antagonist |
